The source made the active and inactive calls. No rule for the calls is given here.

This data set deals with CCRIS mutagenicity, Ames/micronucleus/aberration tests. Briefly: CCRIS mutagenicity studies.
[1] abbreviates: Test System: AMES SALMONELLA TYPHIMURIUM, Strain/Indicator: TA98, Metabolic Activation: NONE, Method: PREINCUBATION
Setting [2] is: Test System: AMES SALMONELLA TYPHIMURIUM, Strain/Indicator: TA98, Metabolic Activation: NONE, Method: STANDARD PLATE.
The mark [3] stands for this setting: Test System: AMES SALMONELLA TYPHIMURIUM, Strain/Indicator: TA98, Metabolic Activation: RAT, LIVER, S-9, AROCLOR 1254, Method: PREINCUBATION
Setting [4] is: Test System: AMES SALMONELLA TYPHIMURIUM, Strain/Indicator: TA100, Metabolic Activation: NONE, Method: PREINCUBATION
Setting [5] is: Test System: AMES SALMONELLA TYPHIMURIUM, Strain/Indicator: TA100, Metabolic Activation: NONE, Method: STANDARD PLATE.
[6] abbreviates: Test System: AMES SALMONELLA TYPHIMURIUM, Strain/Indicator: TA100, Metabolic Activation: RAT, LIVER, S-9, AROCLOR 1254, Method: PREINCUBATION
The mark [7] stands for this setting: Test System: AMES SALMONELLA TYPHIMURIUM, Strain/Indicator: TA100, Metabolic Activation: RAT, LIVER, S-9, AROCLOR 1254, Method: STANDARD PLATE.

In the case of `Cc1ccc(C)cc1`, the mutagenic call (Test System: AMES SALMONELLA TYPHIMURIUM, Strain/Indicator: TA98, Metabolic Activation: HAMSTER, LIVER, S-9, AROCLOR 1254, Method: PREINCUBATION) is “inactive; negative”; the mutagenic call under setting [1] is “inactive; negative”; the mutagenic call under setting [2] is “inactive; negative”; the mutagenic call under setting [3] is “inactive; negative”; the mutagenic call (Test System: AMES SALMONELLA TYPHIMURIUM, Strain/Indicator: TA98, Metabolic Activation: RAT, LIVER, S-9, AROCLOR, Method: STANDARD PLATE) was “inactive; negative”; the mutagenic call (Test System: AMES SALMONELLA TYPHIMURIUM, Strain/Indicator: TA98, Metabolic Activation: RAT, LIVER, S-9, KC 500, Method: PREINCUBATION) was “inactive; negative”. For the same molecule, the mutagenic call is “inactive; negative” (Test System: AMES SALMONELLA TYPHIMURIUM, Strain/Indicator: TA100, Metabolic Activation: HAMSTER, LIVER, S-9, AROCLOR 1254, Method: PREINCUBATION); “inactive; negative” under setting [4]; “inactive; negative” under setting [5]; “inactive; negative” under setting [6]; “inactive; negative” (Test System: AMES SALMONELLA TYPHIMURIUM, Strain/Indicator: TA100, Metabolic Activation: RAT, LIVER, S-9, AROCLOR, Method: STANDARD PLATE); “inactive; negative” (Test System: AMES SALMONELLA TYPHIMURIUM, Strain/Indicator: TA100, Metabolic Activation: RAT, LIVER, S-9, KC 500, Method: PREINCUBATION). Besides, the mutagenic call (Test System: AMES SALMONELLA TYPHIMURIUM, Strain/Indicator: TA1535, Metabolic Activation: HAMSTER, LIVER, S-9, AROCLOR 1254, Method: PREINCUBATION) is “inactive; negative”; the mutagenic call (Test System: AMES SALMONELLA TYPHIMURIUM, Strain/Indicator: TA1535, Metabolic Activation: NONE, Method: PREINCUBATION) is “inactive; negative”; the mutagenic call (Test System: AMES SALMONELLA TYPHIMURIUM, Strain/Indicator: TA1535, Metabolic Activation: RAT, LIVER, S-9, AROCLOR 1254, Method: PREINCUBATION) is “inactive; negative”; the mutagenic call (Test System: AMES SALMONELLA TYPHIMURIUM, Strain/Indicator: TA1535, Metabolic Activation: RAT, LIVER, S-9, KC 500, Method: PREINCUBATION) was “inactive; negative”; the mutagenic call (Test System: AMES SALMONELLA TYPHIMURIUM, Strain/Indicator: TA1537, Metabolic Activation: HAMSTER, LIVER, S-9, AROCLOR 1254, Method: PREINCUBATION) was “inactive; negative”; the mutagenic call (Test System: AMES SALMONELLA TYPHIMURIUM, Strain/Indicator: TA1537, Metabolic Activation: NONE, Method: PREINCUBATION) was “inactive; negative”. Moreover, the mutagenic call is “inactive; negative” (Test System: AMES SALMONELLA TYPHIMURIUM, Strain/Indicator: TA1537, Metabolic Activation: RAT, LIVER, S-9, AROCLOR 1254, Method: PREINCUBATION); “inactive; negative” (Test System: AMES SALMONELLA TYPHIMURIUM, Strain/Indicator: TA1537, Metabolic Activation: RAT, LIVER, S-9, KC 500, Method: PREINCUBATION); “inactive; negative” (Test System: AMES SALMONELLA TYPHIMURIUM, Strain/Indicator: TA1538, Metabolic Activation: NONE, Method: PREINCUBATION); “inactive; negative” (Test System: AMES SALMONELLA TYPHIMURIUM, Strain/Indicator: TA1538, Metabolic Activation: RAT, LIVER, S-9, KC 500, Method: PREINCUBATION); “inactive; negative” (Test System: AMES SALMONELLA TYPHIMURIUM, Strain/Indicator: UTH8413, Metabolic Activation: NONE, Method: STANDARD PLATE); “inactive; negative” (Test System: AMES SALMONELLA TYPHIMURIUM, Strain/Indicator: UTH8413, Metabolic Activation: RAT, LIVER, S-9, AROCLOR, Method: STANDARD PLATE). The mutagenic call runs as follows: (Test System: AMES SALMONELLA TYPHIMURIUM, Strain/Indicator: UTH8414, Metabolic Activation: NONE, Method: STANDARD PLATE) “inactive; negative”; (Test System: AMES SALMONELLA TYPHIMURIUM, Strain/Indicator: UTH8414, Metabolic Activation: RAT, LIVER, S-9, AROCLOR, Method: STANDARD PLATE) “inactive; negative”; (Test System: E. COLI, Strain/Indicator: WP2 UVRA, Metabolic Activation: NONE, Method: PREINCUBATION) “inactive; negative”; (Test System: E. COLI, Strain/Indicator: WP2 UVRA, Metabolic Activation: RAT, LIVER, S-9, KC 500, Method: PREINCUBATION) “inactive; negative”.
On to `Cc1cnc2ccccc2n1`, for which the mutagenic call is, setting by setting: under setting [1], “inactive; negative”; under setting [3], “inactive; negative”; under setting [4], “inactive; negative”; under setting [6], “inactive; negative”; (Test System: AMES SALMONELLA TYPHIMURIUM, Strain/Indicator: TA102, Metabolic Activation: NONE, Method: PREINCUBATION) “inactive; negative”; (Test System: AMES SALMONELLA TYPHIMURIUM, Strain/Indicator: TA102, Metabolic Activation: RAT, LIVER, S-9, AROCLOR 1254, Method: PREINCUBATION) “inactive; negative”.
Regarding `O=[N+]([O-])N(c1ccccn1)S(=O)(=O)c1ccccc1`, the mutagenic call is “inactive; negative” under setting [1], “inactive; negative” under setting [3], “inactive; negative” under setting [4] and “inactive; negative” under setting [6].
Regarding `CCCC/C=C/C=C/C=C/C=C/C=C/OC[C@@H](O)CO`, the mutagenic call under setting [4] was “active; positive” and the mutagenic call under setting [6] is “active; positive”.
As to `O=[N+]([O-])c1ccc2c(c1)nc(/C=N/OCc1ccccc1[N+](=O)[O-])n2Cc1ccccc1`, the mutagenic call by setting is: under setting [2], “active; positive”; (Test System: AMES SALMONELLA TYPHIMURIUM, Strain/Indicator: TA98, Metabolic Activation: RAT, LIVER, S-9, PHENOBARBITAL AND BETA-NAPHTHOFLAVONE, Method: STANDARD PLATE) “active; positive”; under setting [5], “active; positive”; (Test System: AMES SALMONELLA TYPHIMURIUM, Strain/Indicator: TA100, Metabolic Activation: RAT, LIVER, S-9, PHENOBARBITAL AND BETA-NAPHTHOFLAVONE, Method: STANDARD PLATE) “active; positive”.
`OCc1cc2cccc3ccc4cc5ccccc5c1c4c32`: the mutagenic call was “inactive; negative” under setting [2] and “inactive; negative” under setting [5].
`N=C1C=CC2=CC(S(=O)(=O)O)=CC(=O)C2=C1NNc1ccc(-c2ccc(N=Nc3cc(S(=O)(=O)O)c4ccccc4c3N)cc2)cc1`: the mutagenic call (Test System: AMES SALMONELLA TYPHIMURIUM, Strain/Indicator: TA98, Metabolic Activation: HAMSTER, LIVER, S-9, Method: PREINCUBATION (PRIVAL METHOD)) is “active; positive”.
Regarding `O=[N+]([O-])c1ccc2ccc3c4c(cc5ccc1c2c53)C=CCC4`, the mutagenic call (Test System: AMES SALMONELLA TYPHIMURIUM, Strain/Indicator: TA98(1,8-DNP6), Metabolic Activation: NONE, Method: STANDARD PLATE) was “active; positive”; the mutagenic call (Test System: AMES SALMONELLA TYPHIMURIUM, Strain/Indicator: TA98(1,8-DNP6), Metabolic Activation: RAT, LIVER, S-9, AROCLOR 1254, Method: STANDARD PLATE) was “active; positive”; the mutagenic call (Test System: AMES SALMONELLA TYPHIMURIUM, Strain/Indicator: TA98(NR), Metabolic Activation: NONE, Method: STANDARD PLATE) was “active; positive”; the mutagenic call (Test System: AMES SALMONELLA TYPHIMURIUM, Strain/Indicator: TA98(NR), Metabolic Activation: RAT, LIVER, S-9, AROCLOR 1254, Method: STANDARD PLATE) is “active; positive”; the mutagenic call under setting [2] was “active; positive”; the mutagenic call (Test System: AMES SALMONELLA TYPHIMURIUM, Strain/Indicator: TA98, Metabolic Activation: RAT, LIVER, S-9, AROCLOR 1254, Method: STANDARD PLATE) is “active; positive”. The mutagenic call is “active; positive” under setting [5] and “active; positive” under setting [7].
Turning to `CCCCCn1cc2c3c(cccc31)[C@H]1C=C(C)CN(C)[C@@H]1C2`, the mutagenic call under setting [7] was “active; positive”.

(Values after PubChem BioAssay AID1259407 (Chemical Carcinogenesis Research Information System (CCRIS), 2018).)
